Data: PMC9890180, “Structural diversity-guided optimization of carbazole derivatives as potential cytotoxic agents” (Frontiers in Chemistry, 2023)
Read-outs that look alike come from different tables or passages of the source.

What was measured:
[1] = In vitro cytotoxicity MTT assay, MARC145 cells; settings: African green monkey, MARC145 cells (subclone of kidney cell line MA-104)
Description: (§1) The in vitro cytotoxicity of these carbazole derivatives against human melanoma (A875), human gastric adenocarcinoma cells (7901), and a subclone of African green monkey kidney cell line MA-104 (MARC145) cell lines was evaluated using the MTT assay. Briefly, A875, 7901, and MARC145 cells were seeded at 2 × 10^4 cells per well in 96-well plates and grown to subconfluence. After removal of the growth medium, six serial dilutions of each tested compound in 200 µL test medium were added. Plates were incubated at 37°C in a humidified atmosphere containing 5% CO2. After 72 h of exposure, the culture medium was removed and 30 µL of the MTT solution (5 mg/mL in PBS) was added to each well. The plate was further incubated for 4 h to allow MTT formazan formation. To dissolve the resulting MTT formazan, 50 µL of DMSO was added to each well, followed by thorough mixing with a microplate shaker. Absorbance at 570 nm was measured on a microplate reader (Thermo Scientific, MK3). All data were analyzed with SPSS software, and the 50% inhibitory concentrations (IC50) of each compound for the different cell lines were determined. All assays were performed in triplicate on three independent experiments.

[2] = system: 7901 (human gastric adenocarcinoma cells); assay: In vitro cytotoxicity MTT assay, 7901 cells; settings: for IC50 / inhibition at 40 µg/mL: Homo sapiens; for inhibition at 40 µg/mL: read-out: in vitro inhibition rate on 7901
Description: as §1

A875 (human melanoma) [3] = assay: In vitro cytotoxicity MTT assay, A875 cells; settings: for IC50 / inhibition at 40 µg/mL: Homo sapiens; for inhibition at 40 µg/mL: A875, read-out: in vitro inhibition rate on A875
Description: as §1

A875 (human melanoma) [4] = system: A875 (human melanoma); design: method as in Huang et al., 2021; settings: previous work; ref Huang et al., 2021; read-out: IC50 against A875; cited from earlier work
[5] = system: MARC145 (a subclone of African green monkey kidney cell line MA-104); design: method as in Huang et al., 2021; settings: previous work; ref Huang et al., 2021; cited from earlier work
[6] = system: 7901, A875 and MARC145 cell lines; assay: In vitro cytotoxicity MTT assay, overall rating over the tested cell lines; assay type: cell-based
Description: The relationship between concentration and inhibition rate is the key to whether a potential compound can be use as potential medicinal agents. It is very important to maintain good activity at low concentration. Based on the preliminary screening data, in order to verify the effect of concentration on the potential cytotoxic activities for all compounds, the inhibition activity data of the compounds at different concentrations were detected using the same method. All experiments were carried out on three kinds of cell lines with six concentrations of 40, 20, 10, 5, 1, and 0.5 μg/mL. The inhibition activities for highly potential compounds 7b, 11a, 11b, 14a, and 14b were described in Figure 4.

[7] = system: MARC145 (a subclone of African green monkey kidney cell line MA-104)
Description: as §1

A875 (human melanoma) [8] = system: A875 (human melanoma)
Description: as §1

[9] = system: 7901 (human gastric adenocarcinoma cells)
Description: as §1

[10] = system: MARC145 (a subclone of African green monkey kidney cell line MA-104); assay: In vitro cytotoxicity MTT assay, MARC145 cells; settings: preliminary screening, 40 μg/mL
Description: as §1

[11] = 72 h, read-out: In vitro cytotoxicity IC50, 7901
[12] = A875, 72 h, read-out: In vitro cytotoxicity IC50, A875
[13] = A875, read-out: A875 IC50 (Figure 5)

Compound | melting point | IC50 at 72 h [1] | IC50 [2, 11] | IC50 (A875 (human melanoma) [3]; [12]) | Inhibitory activity on tested cells, in words [6] | other results
O=c1[nH]cc(F)c(=O)[nH]1 [Compound 5-FU, 5-fluorouracil, reference compound] | – | 86.3 ± 8.3 µM | 63.5 ± 4.92 µM | 80.1 ± 6.61 µM | – | –
COc1cccc(/C=N/NC(=O)c2ccc3c([nH]c4ccccc43)c2C)c1O [Compound 2021-7e] | – | – | – | – | – | IC50 (A875 (human melanoma) [4]): 4.15 µM; IC50 [5]: 26.6 µM
Cc1ccc(S(=O)(=O)N(NC(=O)c2ccc3c([nH]c4ccccc43)c2C)C(C)(C)C)cc1 [Compound 7d, N-(tert-Butyl)-4-methyl-N'-(1-methyl-9H-carbazole-2-carbonyl)benzenesulfonohydrazide] | 97 °C | 18.7 ± 4.16 µM | 34.5 ± 9.9 µM | > 40 µM | decreases significantly | –
2-(6-Chloro-9H-carbazol-2-yl)-N-(2-((dimethylphosphoryl)amino)phenyl)propanamide [Compound 11b] | – | – | – | – | good inhibition activities on all tested cells | IC50 [7]: 17.3 ± 7.25 µM; in vitro inhibition rate on 7901 ([2]; concentration of 40 μg/mL): > 70%; IC50 (A875 (human melanoma) [8]): 33.6 ± 9.48 µM; in vitro inhibition rate on A875 (A875 (human melanoma) [3]; concentration of 40 μg/mL): > 70%; IC50 [9]: 20.6 ± 3.3 µM
Cc1c(C(=O)Nc2ccc(S(=O)(=O)Nc3ccc(Cl)nc3)cc2)ccc2c1[nH]c1ccccc12 [Compound 7b, N-(4-(N-(6-Chloropyridin-3-yl)sulfamoyl)phenyl)-1-methyl-9H-carbazole-2-carboxamide] | 93 °C | 58.9 ± 16.7 µM | 58.1 ± 11.3 µM | 23 ± 16.9 µM | moderate inhibitory activity | Toxicity to normal cells MARC-145 compared with cancer cells, in words [10]: less toxicity to normal cells MARC-145 than cancer cells; inhibition at 40 µg/mL [2]: > 70%; inhibition at 40 µg/mL (A875 (human melanoma) [3]): > 70%
Cc1c(C(=O)NCC(=O)c2ccccc2)ccc2c1[nH]c1ccccc12 [Compound 7e, 1-Methyl-N-(2-oxo-2-phenylethyl)-9H-carbazole-2-carboxamide] | 153 °C | 62.6 ± 28.2 µM | – | > 40 µM | – | –
Cc1c(C(=O)Nc2ccc(S(=O)(=O)Nc3ccccc3Oc3ccccc3)cc2)ccc2c1[nH]c1ccccc12 [Compound 7a, 1-Methyl-N-(4-(N-(2-phenoxyphenyl)sulfamoyl)phenyl)-9H-carbazole-2-carboxamide] | 78 °C | 51.5 ± 9.24 µM | 64.7 ± 15.1 µM | 33.5 ± 1.63 µM | – | –
Cc1c(C(=O)NN(C(=O)c2ccccc2)C(C)(C)C)ccc2c1[nH]c1ccccc12 [Compound 7c, N'-Benzoyl-N'-(tert-butyl)-1-methyl-9H-carbazole-2-carbohydrazide] | 212 °C | 58.4 ± 31.6 µM | – | > 40 µM | – | –

Further lines, with some results ahead:

melting point | Compound | IC50 at 72 h [1] | IC50 [2, 11] | IC50 (A875 (human melanoma) [3]; [12]) | Inhibitory activity on tested cells, in words [6] | other results
186 °C | CC(C(=O)NN=CC=Cc1ccc(Cl)cc1)c1ccc2c(c1)[nH]c1ccc(Cl)cc12 (stereo not drawn) [Compound 14b, 2-(6-Chloro-9H-carbazol-2-yl)-N'-(3-(4-chlorophenyl)allylidene)propanehydrazide] | 19.6 ± 6.94 µM | 18.9 ± 2.64 µM | 45.6 ± 30.6 µM | good inhibition activities on all tested cells | inhibition at 40 µg/mL [2]: > 70%; inhibition at 40 µg/mL (A875 (human melanoma) [3]): > 70%
209 °C | CC(C(=O)NN=Cc1c[nH]c2ccccc12)c1ccc2c(c1)[nH]c1ccc(Cl)cc12 (stereo not drawn) [Compound 14d, N'-((1H-Indol-3-yl)methylene)-2-(6-chloro-9H-carbazol-2-yl)propanehydrazide] | 42.4 ± 4.58 µM | – | 37.6 ± 8.15 µM | – | –
188 °C | Cc1ccc(NNC(=O)C(C)c2ccc3c(c2)[nH]c2ccc(Cl)cc23)cc1 (stereo not drawn) [Compound 11c, 2-(6-Chloro-9H-carbazol-2-yl)-N'-(p-tolyl)propanehydrazide] | 64 ± 20.1 µM | – | > 40 µM | – | –
157 °C | CC(C(=O)Nc1ccc(S(=O)(=O)Nc2ncccn2)cc1)c1ccc2c(c1)[nH]c1ccc(Cl)cc12 (stereo not drawn) [Compound 11e, 2-(6-Chloro-9H-carbazol-2-yl)-N-(4-(N-(pyrimidin-2-yl)sulfamoyl)phenyl)propanamide] | > 40 µM | – | > 40 µM | – | –
218 °C | CC(C(=O)NN=Cc1ccc(Cl)cc1)c1ccc2c(c1)[nH]c1ccc(Cl)cc12 (stereo not drawn) [Compound 14f, 2-(6-Chloro-9H-carbazol-2-yl)-N'-(4-chlorobenzylidene)propanehydrazide] | > 40 µM | – | > 40 µM | – | IC50 ([2]; read-out: 7901 IC50 (Figure 5)): > 100 µM; IC50 (A875 (human melanoma) [3]; [13]): > 100 µM
149 °C | CC(C(=O)NCCS(C)(=O)=O)c1ccc2c(c1)[nH]c1ccc(Cl)cc12 (stereo not drawn) [Compound 11d, 2-(6-Chloro-9H-carbazol-2-yl)-N-(2-(methylsulfonyl)ethyl)propanamide] | > 40 µM | – | > 40 µM | lost activity | –
217 °C | COc1cccc(C=NNC(=O)C(C)c2ccc3c(c2)[nH]c2ccc(Cl)cc23)c1O (stereo not drawn) [Compound 14a, 2-(6-Chloro-9H-carbazol-2-yl)-N'-(2-hydroxy-3-methoxybenzylidene)propanehydrazide] | 7.47 ± 4.15 µM | 11.8 ± 1.26 µM | 9.77 ± 8.32 µM | good inhibition activities on all tested cells | Inhibition activity at low concentration, in words ([6]; concentration of 5 μg/mL): good activity; Toxicity to normal cells MARC-145 compared with cancer cells, in words [10]: less toxicity to normal cells MARC-145 than cancer cells; inhibition at 40 µg/mL [2]: > 70%; IC50 (A875 (human melanoma) [3]; [13]): 9.77 ± 8.33 µM; inhibition at 40 µg/mL (A875 (human melanoma) [3]): > 70%
239 °C | COc1cc(C=NNC(=O)C(C)c2ccc3c(c2)[nH]c2ccc(Cl)cc23)ccc1O (stereo not drawn) [Compound 14e, 2-(6-Chloro-9H-carbazol-2-yl)-N'-(4-hydroxy-3-methoxybenzylidene)propanehydrazide] | > 40 µM | – | > 40 µM | almost lost its activity | IC50 ([2]; read-out: 7901 IC50 (Figure 5)): > 100 µM; IC50 (A875 (human melanoma) [3]; [13]): > 100 µM
240 °C | CC(C(=O)NN=Cc1ccc2c(c1)OCO2)c1ccc2c(c1)[nH]c1ccc(Cl)cc12 (stereo not drawn) [Compound 14c, N'-(Benzo[d][1,3]dioxol-5-ylmethylene)-2-(6-chloro-9H-carbazol-2-yl)propanehydrazide] | > 40 µM | – | > 40 µM | – | –
163 °C | CC(C(=O)Nc1ccccc1NS(C)(=O)=O)c1ccc2c(c1)[nH]c1ccc(Cl)cc12 (stereo not drawn) [Compound 11a, 2-(6-Chloro-9H-carbazol-2-yl)-N-(2-(methylsulfonamido)phenyl)propanamide] | 22.9 ± 14.3 µM | 21.9 ± 3.05 µM | 36.7 ± 2.96 µM | good inhibition activities on all tested cells | Toxicity to normal cells MARC-145 compared with cancer cells, in words [10]: less toxicity to normal cells MARC-145 than cancer cells; inhibition at 40 µg/mL [2]: > 70%; inhibition at 40 µg/mL (A875 (human melanoma) [3]): > 70%
241 °C | CC(C(=O)NN=Cc1ccc(Cl)cc1Cl)c1ccc2c(c1)[nH]c1ccc(Cl)cc12 (stereo not drawn) [Compound 14g, 2-(6-Chloro-9H-carbazol-2-yl)-N'-(2,4-dichlorobenzylidene)propanehydrazide] | 96.3 ± 63.3 µM | 38.8 ± 2.74 µM | > 40 µM | – | –
